Source: ChEMBL document CHEMBL1255421, “In vitro fungicidal activities of echinocandins against Candida metapsilosis, C. orthopsilosis, and C. parapsilosis evaluated by time-kill studies” (2010)
Active and inactive are the calls of the source. The rule behind the calls is not given here. Numbered stars: 1 amine (or outer) side, 2 acyl side, 3 side chain; on linkers, the order of the positions; unused ones are H or OH. Bridge positions count the residues as written; N and C are the ends. Square brackets hold non-standard residues; d marks the D form. Peptide text beside a SMILES is read from it. * marks the point of attachment. hTyr(3S-OH,4S-OH,3'-OSO3H) = N[C@H](C(=O)O)[C@H](O)[C@@H](O)c1ccc(O)c(OS(=O)(=O)O)c1; pTerphenylCO(4''-OnC5H11) = CCCCCOc1ccc(-c2ccc(-c3ccc(C(=O)*)cc3)cc2)cc1; Orn(4R-OH,5R-OH) = O=C([C@H](C[C@@H](O)[C@@H](O)N[*:3])N[*:1])[*:2]; hTyr(3S-OH,4S-OH) = N[C@H](C(=O)O)[C@H](O)[C@@H](O)c1ccc(O)cc1; Pro(3S-OH,4S-Me) = C[C@H]1CN[C@H](C(=O)O)[C@H]1O; X1 = CCCCCOc1ccc(-c2cc(-c3ccc(C(=O)*)cc3)no2)cc1; Gln(3R-OH) = NC(=O)C[C@@H](O)[C@H](N)C(=O)O; Hyp = O=C(O)[C@@H]1C[C@@H](O)CN1

Key:
Type in all cases: functional, organism-based
Candida orthopsilosis = experiment: Antifungal activity against Candida orthopsilosis clinical isolate bloodstream form assessed as induction of miniparadoxical effect at 32 mg/L after 48 hrs by time-kill assay
Candida parapsilosis [1] = experiment: Antifungal activity against Candida parapsilosis clinical isolate bloodstream form assessed as induction of miniparadoxical effect at 32 mg/L after 48 hrs by time-kill assay
Candida parapsilosis [2] = experiment: Antifungal activity against Candida parapsilosis clinical isolate bloodstream form assessed as induction of maximal fungal death at 8 mg/L after 48 hrs by time-kill assay
Candida metapsilosis [3] = experiment: Antifungal activity against Candida metapsilosis clinical isolate bloodstream form assessed as induction of miniparadoxical effect at 16 mg/L after 48 hrs by time-kill assay
Candida parapsilosis [4] = experiment: Antifungal activity against Candida parapsilosis clinical isolate bloodstream form assessed as induction of miniparadoxical effect at 16 mg/L after 48 hrs by time-kill assay
Candida metapsilosis [5] = experiment: Antifungal activity against Candida metapsilosis clinical isolate bloodstream form assessed as induction of maximal fungal death at 16 mg/L after 48 hrs by time-kill assay
Candida metapsilosis [6] = experiment: Antifungal activity against Candida metapsilosis clinical isolate bloodstream form assessed as induction of maximal fungal death at 32 mg/L after 48 hrs by time-kill assay

## CCCCCOc1ccc(-c2ccc(-c3ccc(C(=O)N[C@H]4C[C@@H](O)[C@@H](O)NC(=O)[C@@H]5[C@@H](O)[C@@H](C)CN5C(=O)[C@H]([C@@H](C)O)NC(=O)[C@H]([C@H](O)[C@@H](O)c5ccc(O)cc5)NC(=O)[C@@H]5C[C@@H](O)CN5C(=O)[C@H]([C@@H](C)O)NC4=O)cc3)cc2)cc1 [ANIDULAFUNGIN] ({pTerphenylCO(4''-OnC5H11)}-[Orn(4R-OH,5R-OH)]T[Hyp][hTyr(3S-OH,4S-OH)]T[Pro(3S-OH,4S-Me)]; lactam 1-C)
Candida orthopsilosis
  Activity: Active
Candida parapsilosis [1]
  Activity: Active
Candida parapsilosis [2]
  Activity: Active

## CC[C@H](C)C[C@H](C)CCCCCCCCC(=O)N[C@H]1C[C@@H](O)[C@@H](NCCN)NC(=O)[C@@H]2[C@@H](O)CCN2C(=O)[C@H]([C@H](O)CCN)NC(=O)[C@H]([C@H](O)[C@@H](O)c2ccc(O)cc2)NC(=O)[C@@H]2C[C@@H](O)CN2C(=O)[C@H]([C@@H](C)O)NC1=O [CASPOFUNGIN]
Candida metapsilosis [3]
  Activity: Active
Candida parapsilosis [4]
  Activity: Active
Candida metapsilosis [5]
  Activity: Active

## CCCCCOc1ccc(-c2cc(-c3ccc(C(=O)N[C@H]4C[C@@H](O)[C@@H](O)NC(=O)[C@@H]5[C@@H](O)[C@@H](C)CN5C(=O)[C@H]([C@H](O)CC(N)=O)NC(=O)[C@H]([C@H](O)[C@@H](O)c5ccc(O)c(OS(=O)(=O)O)c5)NC(=O)[C@@H]5C[C@@H](O)CN5C(=O)[C@H]([C@@H](C)O)NC4=O)cc3)no2)cc1 [MICAFUNGIN] (X1-[Orn(4R-OH,5R-OH)]T[Hyp][hTyr(3S-OH,4S-OH,3'-OSO3H)][Gln(3R-OH)][Pro(3S-OH,4S-Me)]; lactam 1-C)
Candida metapsilosis [6]
  Activity: Active
